Experimental findings from ChEMBL document CHEMBL1212791 (Antimicrob Agents Chemother, 2010) are described below.

Format in all cases: ADME, organism-based
Series [1] can be described thus: Volume of distribution at steady state with respect to bioavailability in liver transplant patient with end-stage liver disease at 200 mg/kg, po bid. Particulars: human, in vivo, read-out: Vc/F.
The nature of series [2]: Terminal half life in liver transplant patient with end-stage liver disease at 200 mg/kg, po bid. Particulars: human, in vivo, read-out: beta t1/2 (converted). Further details: dose 200 mg/kg, route oral.
Series [3] deals with Homo sapiens. As to the kind of experiment: Clast in liver transplant patient with end-stage liver disease at 200 mg/kg, po bid. Further details: dose 200 mg/kg, route oral. Particulars: in vivo.
Series [4] is described as follows: AUC (0 to infinity) in liver transplant patient with end-stage liver disease at 200 mg/kg, po bid. Set-up: time infinity, dose 200 mg/kg, route oral. The conditions noted are these: human, in vivo.
The nature of series [5]: Terminal disposition rate in liver transplant patient with end-stage liver disease at 200 mg/kg, po bid. Set-up: dose 200 mg/kg, route oral. Particulars: human, in vivo, read-out: Activity (converted).
The nature of series [6]: Mean residence time in liver transplant patient with end-stage liver disease at 200 mg/kg, po bid. Further details: dose 200 mg/kg, route oral. The conditions noted are these: human, in vivo.
Series [7] is described as follows: Tmax in liver transplant patient with end-stage liver disease at 200 mg/kg, po bid. Particulars: human, in vivo. Set-up: dose 200 mg/kg, route oral.
Series [8] concerns Homo sapiens. As to the kind of experiment: Plasma concentration in liver transplant patient with end-stage liver disease at 200 mg/kg, po bid. The conditions noted are these: in vivo. Set-up: dose 200 mg/kg, route oral.
Series [9] can be described thus: Cmax in liver transplant patient with end-stage liver disease at 200 mg/kg, po bid. Set-up: dose 200 mg/kg, route oral. The conditions noted are these: human, in vivo.
Series [10] concerns Homo sapiens. As to the kind of experiment: AUMC (0 to infinity) in liver transplant patient with end-stage liver disease at 200 mg/kg, po bid. Set-up: dose 200 mg/kg, route oral. Particulars: in vivo.

With `C[C@@H](c1ncncc1F)[C@](O)(Cn1cncn1)c1ccc(F)cc1F` [VORICONAZOLE], the Vd/F in series [1] is 94.5 L. Moreover, the half-life in [2] was 15 h. Also, the Clast in [3] stood at 1600 ng/mL. This compound also yielded an AUC(0-inf) in series [4] of 25900 ng·h/mL. In addition, in [5], the k el is 1.67e-05 s⁻¹. Besides, in [6], the MRT worked out at 78.2 h. In series [7], the Tmax is 1.8 h. The Cp in [8] came out at 1000 ng/mL. For the same compound, the Cmax in series [9] stood at 2900 ng/mL. The compound further came in with an AUMC in [10] of 2557.5 hr.hr.ug/ml.
